Data on 29 compounds can be found in patent US6700013B2, “Tricyclic fused heterocycle compounds, process for preparing the same and use thereof” (Nippon Suisan Kaisha, Ltd., priority 1999, dated 2004).

In general, melting point refers to the temperature, or range, at which the solid turns liquid.

In turn, `CCCCc1ccc2c(c1)CC(=O)c1c(O)cc(O)cc1O2` [Example 50] gave a melting point of 105.6 to 106.8 °C. In turn, `O=C1Cc2ccc(-c3cc4ccccc4o3)cc2Oc2cc(O)cc(O)c21` [Example 95] showed a melting point of 257.9 to 259.9 °C.

In turn, `O=C1Cc2cc(-c3ccc(O)c(O)c3)ccc2Oc2cc(O)cc(O)c21` [Example 93] came in with a melting point greater than 250 °C. In the case of `CCC1C(=O)c2cc(O)c(O)cc2Sc2ccc(-c3ccccc3)cc21` (centres unmarked) [Example 163] it was 225.7 to 227.3 °C; in that of `CCC1C(=O)c2cc(O)c(O)cc2Sc2cc(-c3ccccc3)ccc21` (centres unmarked) [Example 154], 274.3 to 276.1 °C; in that of `COc1cc(O)c2c(c1)Sc1ccc(Br)cc1CC2=O` [Example 14], 187.5 °C.

On to `CCC1C(=O)c2cc(O)c(O)cc2Sc2cc(SC)ccc21` (centres unmarked) [Example 46], for which the melting point lay in the range of 179.8 to 183 °C. Take `Nc1cccc(-c2ccc3c(c2)CCc2c(O)cc(O)cc2O3)c1` [Example 119]: the melting point lay within 197.2 to 199.3 °C. In the case of `CCC1C(=O)c2c(O)cc(O)cc2Sc2ccccc21` (centres unmarked) [Example 38] it was 175 to 177.5 °C; in that of `CCCC(=O)c1ccc2c(c1)CCc1c(O)cc(O)cc1S2` [Example 129], 151.8 to 152.8 °C. To `CCC1(CC)C(=O)c2cc(O)c(O)cc2Sc2ccccc21` [Example 3] belongs 238 to 244.1 °C; to `CCC1C(=O)c2c(O)cc(O)cc2Sc2ccc(SC)cc21` (centres unmarked) [Example 35], 167.4 to 168.2 °C; to `Cc1ccccc1-c1ccc2c(c1)Oc1cc(O)cc(O)c1C(=O)C2` [Example 72], 163.5 to 165.8 °C. To `CCC1C(=O)c2cc(O)c(O)cc2Sc2ccc(SC)cc21` (centres unmarked) [Example 36] belongs 199.6 to 200.5 °C. In turn, `CCC1C(=O)c2cc(O)c(O)cc2Sc2cc(-c3cccc(N)c3)ccc21` (centres unmarked) [Example 176] registered a melting point of 245.5 to 246.4 °C. To `CCC(=O)c1ccc2c(c1)CCc1c(O)cc(O)cc1O2` [Example 10, 8-Propionyl-10,11-dihydrodibenz[b,f]oxepin-1,3-diol] belongs 159 to 160.3 °C. `Cc1ccc(-c2ccc3c(c2)Oc2cc(O)cc(O)c2CC3)cc1` [Example 112] gave a melting point of 195.1 to 197.1 °C. To `O=C(Cc1ccc2c(c1)Oc1cc(O)cc(O)c1C(=O)C2)C1=CCCCC1` [Example 68] belongs 195.5 to 195.8 °C; to `Oc1cc(O)c2c(c1)Oc1ccc(-c3ccco3)cc1CC2` [Example 114], 163.6 to 173.9 °C; to `O=[N+]([O-])c1cccc(-c2ccc3c(c2)CCc2c(O)cc(O)cc2O3)c1` [Example 120], 199.6 to 201.8 °C. The compound `O=C1Cc2ccc(-c3cc4ccccc4o3)cc2Sc2cc(O)cc(O)c21` [Example 92] registered a melting point of 251.6 to 253.8 °C. To `CC(=O)c1ccc(-c2ccc3c(c2)CC(=O)c2c(O)cc(O)cc2O3)cc1` [Example 65] belongs 274 to 279 °C (dec.); to `OCCCc1ccc2c(c1)CCc1c(O)cc(O)cc1O2` [Example 103], 153.3 to 154.8 °C. In turn, `Oc1cc(O)c2c(c1)Oc1ccc(-c3ccccc3)cc1CC2` [Example 109] showed a melting point of 176.7 to 179.2 °C.

Consider `CC1C(=O)c2c(O)cc(O)cc2Sc2ccccc21` (centres unmarked) [Example 39], for which the melting point lay within 152.1 to 153.4 °C. `Oc1cc(O)c2c(c1)Oc1ccc(-c3cccs3)cc1CC2` [Example 111] came in with a melting point of 188.3 to 191.4 °C. The compound `Cc1ccccc1-c1ccc2c(c1)Sc1cc(O)cc(O)c1C(=O)C2` [Example 89] returned a melting point of 178.1 to 198.3 °C. `N#Cc1ccc2c(c1)CCc1c(O)cc(O)cc1O2` [Example 122]: the melting point lay in the range of 211.8 to 217.3 °C. In the case of `O=C1Cc2ccc(C#Cc3ccccc3)cc2Oc2cc(O)cc(O)c21` [Example 101] it was 189.4 to 191.1 °C.
